Data set [1] can be described thus: Site-300 beryllium oxide debris particle chelation (ICP-MS of filtrates). The data set is classed as physicochemical. The note with it: pH 7, equilibrated 3 days. Here is the method:
The aims of this investigation were not limited to the study of beryllium in biological fluids and systems. A good chelator in the body is likely a good chelator in the environment. […] Particles were obtained from the Contained Firing Facility (CFF) at LLNL Site 300. Approximately 500 mg of beryllium oxide debris was weighed in a tared polyethylene vials and varying concentrations of APMDP chelator (pH adjusted to pH 7) were added to each vial. The vials were left to stand for 3 days, with manual shaking performed for 2 minutes each, twice a day. Samples were then filtered through a 0.2 um membrane and filtrates were analyzed by ICP-MS.

A short description of data set [2]: Initial mouse tolerability experiment with beryllium and chelator. The data set is classed as in vivo, mice. The note with it: beryllium and chelator administration, 48-hour experiment. As to the method: LLNL-IBC#2004-029. Two sets of animal experiments were performed.
The conditions of data set [3]: in vivo; cited from earlier work.
For data set [4] the following is noted: cited from earlier work.

The structures appear in SMILES notation.

Take `NC(c1ccccc1)(P(=O)(O)O)P(=O)(O)O` [APMDP, α-aminobenzyl-α,α,-diphosphoric acid]: the “dissolution of insoluble BeO fines” value in data set [1] is reported as “can be dissolved”. For the same molecule, the “adverse effect on mice” value in data set [2] is given as “did not adversely affect the mice”.

Consider `NCc1ccccc1` [Benzylamine], for which the LD-50 in data set [3] is 128 mg/kg.

Turning to `CC(c1ccccc1)N(C)C` (centres unmarked) [N,N-dimethyl-a-methylbenzylamine], the LD-50 in data set [3] is 420 mg/kg.

In the case of `CC(N)c1ccccc1` (centres unmarked) [a-methylbenzylamine], the LD-50 in data set [3] was 940 mg/kg.

In the case of `O=P(O)(O)c1ccccc1` [phenylphosphonic acid], in data set [3], the toxic at is 110 mg/kg. Also, the water solubility entry in data set [4] was “water soluble”.

As to `O=S(=O)(O)c1cc(O)c(O)c(S(=O)(=O)O)c1` [tiron], the “adverse effect on mice” value in data set [2] is “did not adversely affect the mice”.

The record behind these values is patent publication US20070254827A1, “Alpha-aminobenzyl-alpha,alpha,-diphosphoric acid selective chelation of beryllium” (priority 2006, published 2007).
